What was measured:
[1] = molecular target: Acetylcholinesterase (E.C.3.1.1.7, from electric eel) (Electrophorus electricus, UniProt O42275); test: biochemical; type: biochemical; details: for IC50: electric eel AChE, pH 7.7, 37 °C, triplicate, read-out: Acetylcholinesterase (AChE) IC50 ± SEM
[2] = molecular target: butyrylcholinesterase (E.C. 3.1.1.8, from horse serum) (Equus caballus, UniProt P81908); test: In vitro butyrylcholinesterase inhibition assay (Ellman's method); type: biochemical; details: for Butyrylcholinesterse (BChE) %inhibition: compounds with <50% inhibition
[3] = molecular target: acetylcholinesterase (Electrophorus electricus, UniProt O42275); test: Kinetics studies, mechanism of inhibition (Lineweaver-Burk); type: biochemical, electric eel; details: substrate acetylthiocholine iodide; Vmax not affected, Km increased
Method: Enzyme kinetics were used to determine the mechanism of acetylcholinesterase inhibition. Lineweaver-Burk graph ([…]) were used for the determination of the type of inhibition and analysis of effect of inhibitor on Vmax and Kₘ. The slope Km/Vmax of each line in the Lineweaver-Burk plot was plotted against different concentrations of substrate and chemicals to determine the value of Ki.
Kinetics studies were performed on 5b and 5d with different concentrations of compounds and substrate. Four concentrations of 1 mM compound 5b (0, 0.06, 0.12, 0.18 µM), compound 5d (0, 0.3, 0.6, 0.9 µM) and four concentrations of substrate (0, 0.5, 1.0, 1.5 and 2.0 mM showing 1/S as 0.0, 2.0, 1.0, 0.667 and 0.5, respectively) were made. Both compounds competes with substrate (acetylthiocholine iodide) for binding in the active site of acetylcholinesterase.
Michaelis-Menten kinetics experiments were used to determine the type of enzyme inhibition. […] For this purpose, the initial rates of the enzyme inhibition at four concentrations of substrate (0, 0.5, 1.0, 1.5, 2.0 mM) in the absence and presence of four different concentrations of compound 5b (0, 0.06, 0.12, 0.18 µM) and compound 5d (0, 0.3, 0.6, 0.9 µM) against acetylcholinesterase were measured.

Sequence of Acetylcholinesterase (E.C.3.1.1.7, from electric eel) (O42275 24-633): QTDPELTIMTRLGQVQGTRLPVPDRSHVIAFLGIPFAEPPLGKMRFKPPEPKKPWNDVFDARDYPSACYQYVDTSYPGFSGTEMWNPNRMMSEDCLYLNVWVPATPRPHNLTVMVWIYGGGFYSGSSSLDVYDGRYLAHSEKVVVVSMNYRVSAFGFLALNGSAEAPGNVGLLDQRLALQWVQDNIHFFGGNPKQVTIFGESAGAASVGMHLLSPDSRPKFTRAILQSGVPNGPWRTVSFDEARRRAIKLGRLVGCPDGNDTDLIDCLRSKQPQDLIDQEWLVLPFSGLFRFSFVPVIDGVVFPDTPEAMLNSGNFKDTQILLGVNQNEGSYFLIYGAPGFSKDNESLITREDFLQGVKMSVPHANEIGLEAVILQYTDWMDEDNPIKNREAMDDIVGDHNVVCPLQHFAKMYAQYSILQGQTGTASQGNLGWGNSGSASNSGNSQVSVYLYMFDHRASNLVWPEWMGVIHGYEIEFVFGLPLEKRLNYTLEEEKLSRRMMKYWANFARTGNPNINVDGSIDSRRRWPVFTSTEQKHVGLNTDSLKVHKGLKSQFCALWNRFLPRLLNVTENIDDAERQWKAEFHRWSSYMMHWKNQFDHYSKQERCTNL
Sequence of acetylcholinesterase (O42275 24-633): as above
Sequence of butyrylcholinesterase (E.C. 3.1.1.8, from horse serum) (P81908 whole entry): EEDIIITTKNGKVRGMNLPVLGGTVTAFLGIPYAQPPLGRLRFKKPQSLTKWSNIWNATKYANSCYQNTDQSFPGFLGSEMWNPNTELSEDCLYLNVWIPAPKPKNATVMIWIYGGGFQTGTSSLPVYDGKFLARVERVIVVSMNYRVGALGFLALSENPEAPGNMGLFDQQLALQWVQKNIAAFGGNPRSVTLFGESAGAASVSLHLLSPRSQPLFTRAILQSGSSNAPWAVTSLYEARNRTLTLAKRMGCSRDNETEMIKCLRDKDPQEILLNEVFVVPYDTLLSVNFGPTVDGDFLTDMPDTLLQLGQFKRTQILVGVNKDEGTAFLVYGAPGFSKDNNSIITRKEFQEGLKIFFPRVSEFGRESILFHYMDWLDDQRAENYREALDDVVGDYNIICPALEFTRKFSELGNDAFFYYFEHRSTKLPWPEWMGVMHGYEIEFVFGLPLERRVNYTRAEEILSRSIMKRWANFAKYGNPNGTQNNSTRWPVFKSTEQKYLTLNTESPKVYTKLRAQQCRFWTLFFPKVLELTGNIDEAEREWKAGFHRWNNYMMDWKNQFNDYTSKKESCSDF

S=C(NN=Cc1cc2ccccc2nc1Cl)Nc1ccccc1 [Compound 5f, 2-((2-Chloroquinolin-3-yl)methylene)-N-phenylhydrazinecarbothioamide]
IC50 [1]: 23.2 ± 1.28 µM
Butyrylcholinesterse (BChE) %inhibition [2]: 4.47%

COc1ccc2cc(C=NNC(=S)NCCN3CCOCC3)c(Cl)nc2c1 [Compound 5c, 2-((2-Chloro-7-methoxyquinolin-3-yl)methylene)-N-(2-morpholinoethyl)hydrazinecarbothioamide]
IC50 [1]: 5.53 ± 0.11 µM
Butyrylcholinesterse (BChE) %inhibition [2]: 1.33%

COc1ccc2nc(Cl)c(C=NNC(=S)Nc3ccccc3)cc2c1 [Compound 5g, 2-((2-Chloro-6-methoxyquinolin-3-yl)methylene)-N-phenylhydrazinecarbothioamide]
IC50 [1]: 34.2 ± 1.02 µM
IC50 ([2]; horse serum BChE, pH 7.7, 37 °C, triplicate, read-out: Butyrylcholinesterse (BChE) IC50 ± SEM): 11.3 ± 0.67 µM

COc1ccc2nc(Cl)c(C=NNC(=S)NCCN3CCOCC3)cc2c1 [Compound 5b, 2-((2-Chloro-6-methoxyquinolin-3-yl)methylene)-N-(2-morpholinoethyl)hydrazinecarbothioamide]
IC50 [1]: 0.12 ± 0.02 µM
Potency against AChE relative to standard drug galantamine ([1]; ratio of IC50 values vs galantamine): 5 fold
Butyrylcholinesterse (BChE) %inhibition [2]: 8.12%
Mode of inhibition of acetylcholinesterase [3]: competitive inhibition

S=C(NN=Cc1cc2ccc(Cl)cc2nc1Cl)Nc1ccccc1 [Compound 5k, 2-((2,7-Dichloroquinolin-3-yl)methylene)-N-phenylhydrazinecarbothioamide]
IC50 [1]: 47.1 ± 1.45 µM
Butyrylcholinesterse (BChE) %inhibition [2]: 20.3%

Cc1ccc2cc(C=NNC(=S)Nc3ccccc3)c(Cl)nc2c1 [Compound 5j, 2-((2-Chloro-7-methylquinolin-3-yl)methylene)-N-phenylhydrazinecarbothioamide]
IC50 [1]: 46.5 ± 3.12 µM
Butyrylcholinesterse (BChE) %inhibition [2]: 16.8%

Cc1ccc2cc(C=NNC(=S)NCCN3CCOCC3)c(Cl)nc2c1 [Compound 5d, 2-((2-Chloro-7-methylquinolin-3-yl)methylene)-N-(2-morpholinoethyl)hydrazinecarbothioamide]
IC50 [1]: 0.55 ± 0.01 µM
Butyrylcholinesterse (BChE) %inhibition [2]: 1.52%
Mode of inhibition of acetylcholinesterase [3]: competitive inhibition

S=C(NCCN1CCOCC1)NN=Cc1cc2ccc(Cl)cc2nc1Cl [Compound 5e, 2-((2,7-Dichloroquinolin-3-yl)methylene)-N-(2-morpholinoethyl)hydrazinecarbothioamide]
IC50 [1]: 10.5 ± 0.16 µM
Butyrylcholinesterse (BChE) %inhibition [2]: 1.88%

S=C(NCCN1CCOCC1)NN=Cc1cc2ccccc2nc1Cl [Compound 5a, 2-((2-Chloroquinolin-3-yl)methylene)-N-(2-morpholinoethyl)hydrazinecarbothioamide]
IC50 [1]: 2.95 ± 0.24 µM
Butyrylcholinesterse (BChE) %inhibition [2]: 3.32%

COc1ccc2cc(C=NNC(=S)Nc3ccccc3)c(Cl)nc2c1 [Compound 5i, 2-((2-Chloro-7-methoxyquinolin-3-yl)methylene)-N-phenylhydrazinecarbothioamide]
IC50 [1]: 60.9 ± 6.57 µM
Butyrylcholinesterse (BChE) %inhibition [2]: 24.0%

Cc1ccc2nc(Cl)c(C=NNC(=S)Nc3ccccc3)cc2c1 [Compound 5h, 2-((2-Chloro-6-methylquinolin-3-yl)methylene)-N-phenylhydrazinecarbothioamide]
IC50 [1]: 49.3 ± 2.49 µM
Butyrylcholinesterse (BChE) %inhibition [2]: 32.6%
